Experiment [1] concerns the target GST-Syk Full Protein (human) (Homo sapiens, UniProt P43405). Kind of experiment: Syk kinase inhibition test (HTRF method). The class given is biochemical. As to conditions: Tables 2-x, thiophene compounds B; read-out: sykHTRK ave IC50. The procedure, abridged: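 Human GST-Syk full-length (6.4 nM) phosphorylated biotin-EDPDYEWPSA-NH2 (250 nM) with 100 μM ATP in HEPES pH 7.0/MgCl2 buffer, 2% DMSO, 30 min at room temperature. EDTA stop, then HTRF detection (streptavidin-XL665, Eu anti-phosphotyrosine) after 1 h; 665/620 ratio read.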
(Time-resolved FRET reads energy transfer from a long-lived donor to a nearby acceptor.)

The subject of experiment [2] is cultured human mast cells. Kind of experiment: Degranulation inhibition test using cultured human mast cells (IgE cross-linking, β-Hexosaminidase release). The class given is cell-based. To be noted: Mast cell; Tables 2-x, thiophene compounds B; cultured human mast cells; read-out: human degranulation ave. IC50. In short, it runs like this:
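CD34+ cord-blood cells cultured ≥8 weeks with SCF/IL-6/IL-3; FcεRI primed 5 days with rhIL-4 (1 ng/mL) and hIgE (0.5 μg/mL). Compound (0.1% DMSO) preincubated 10 min at 37 °C, then anti-IgE (final 10 μg/mL) 30 min; released β-hexosaminidase read at 405 nm versus total lysate, IC50 (M).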

For `CC(=O)c1ccc(-c2cccc(Nc3cc(C4(C)OCCO4)ccn3)n2)s1` [Compound B-78], the IC50 in experiment [1] and in experiment [2] was 100 to 1000 nM each time.
Take `Cc1ccnc(Nc2cccc(-c3ccc(C(=O)N4CCC(O)CC4)s3)n2)c1` [Compound B-79]: the half-maximal inhibitory concentration (IC50) in experiment [1] and in experiment [2] was 100 to 1000 nM in each case.
`Cc1ccnc(Nc2cccc(-c3ccc(C(=O)N4CCC[C@H]4CO)s3)n2)c1` [Compound B-80]: the half-maximal inhibitory concentration (IC50) in experiment [1] and in experiment [2] was 100 to 1000 nM in each case.
For `Cc1ccnc(Nc2cccc(-c3ccc(C(=O)N4CCOCC4)s3)n2)c1` [Compound B-81], the half-inhibitory concentration (IC50) in experiment [1] and in experiment [2] was 100 to 1000 nM each time.
Take `CC(=O)c1ccc(-c2cccc(Nc3cc(OCCN(C)C)ccn3)n2)s1` [Compound B-82]: the IC50 in experiment [1] and in experiment [2] was 100 to 1000 nM throughout.
Consider `CC(=O)c1ccnc(Nc2cccc(-c3ccc(C(C)=O)s3)n2)c1` [Compound B-83], for which the 50% inhibitory concentration (IC50) in experiment [1] and in experiment [2] was 100 to 1000 nM in each case.
With `Cc1ccnc(Nc2cccc(-c3ccc(C(=O)N4CCNCC4)s3)n2)c1` [Compound B-84, {5-[6-(4-methylpyridin-2-ylamino)pyridin-2-yl]thiophen-2-yl}piperazin-1-ylmethanone], the IC50 – broadly, the concentration that inhibits the measured activity by half – was < 100 nM in experiment [1] and 100 to 1000 nM in experiment [2].
`CC(=O)N1CCN(C(=O)c2ccc(-c3cccc(Nc4cc(C)ccn4)n3)s2)CC1` [Compound B-85]: the IC50 in experiment [1] and in experiment [2] was 100 to 1000 nM throughout.
With `CC(=O)O/N=C(\C)c1ccc(-c2cccc(Nc3cc(C)ccn3)n2)s1` [Compound B-86], the IC50 in experiment [1] and in experiment [2] was 100 to 1000 nM each time.
Consider `CC(=O)c1ccc(-c2cccc(Nc3cc(C4=NC(C)(C)CO4)ccn3)n2)s1` [Compound B-87, 1-(5-{6-[4-(4,4-dimethyl-4,5-dihydrooxazol-2-yl)pyridin-2-ylamino]pyridin-2-yl}thiophen-2-yl)ethanone], for which the figures for the IC50 in experiment [1] and in experiment [2] were < 100 nM and 100 to 1000 nM, respectively.
Turning to `Cc1ccnc(Nc2cccc(-c3cc(C)c(C(=O)NC(C)(C)CO)s3)n2)c1` [Compound B-88], the IC50 in experiment [1] and in experiment [2] was 100 to 1000 nM in each case.
As to `CCc1ccc(-c2cccc(Nc3cc(C)ccn3)n2)s1` [Compound B-91], the IC50 in experiment [1] was 100 to 1000 nM; in experiment [2], > 1000 nM.
Consider `Cc1ccnc(Nc2cccc(-c3ccc(C(C)N)s3)n2)c1` (centres unmarked) [Compound B-92], for which the 50% inhibitory concentration (IC50) in experiment [1] and in experiment [2] was 100 to 1000 nM in each case.
For `CC(=O)NC(C)c1ccc(-c2cccc(Nc3cc(C)ccn3)n2)s1` (centres unmarked) [Compound B-93], the 50% inhibitory concentration (IC50) in experiment [1] and in experiment [2] was 100 to 1000 nM throughout.
For the molecule `OCc1ccnc(Nc2cccc(-c3cccs3)n2)c1` [Compound B-94], the 50% inhibitory concentration (IC50) in experiment [1] and in experiment [2] was 100 to 1000 nM each time.
Take `Cc1ccnc(Nc2cccc(-c3ccc(-c4nnn[nH]4)s3)n2)c1` [Compound B-95]: the IC50 in experiment [1] is 100 to 1000 nM; in experiment [2], > 1000 nM.
Regarding `CC(=O)c1ccc(-c2cccc(Nc3cc(CO)ccn3)n2)s1` [Compound B-96], the IC50 in experiment [1] is 100 to 1000 nM; in experiment [2], > 1000 nM.
On the same counts, the results for `COC(=O)CCNC(=O)c1ccc(-c2cccc(Nc3cc(C)ccn3)n2)s1` [Compound B-97] are 100 to 1000 nM and > 1000 nM.
In the case of `Cc1ccnc(Nc2cccc(-c3ccc(C(=O)NCCC(=O)O)s3)n2)c1` [Compound B-98], the IC50 is 100 to 1000 nM in experiment [1] and > 1000 nM in experiment [2].
In the case of `Cc1ccnc(Nc2cccc(-c3ccc(C(=O)NCC(=O)O)s3)n2)c1` [Compound B-99], the half-inhibitory concentration (IC50) is 100 to 1000 nM in experiment [1] and > 1000 nM in experiment [2].
Take `Cc1ccnc(Nc2cccc(-c3ccc(C(=O)NC(C)(C)C(=O)O)s3)n2)c1` [Compound B-100]: the IC50 in experiment [1] is 100 to 1000 nM; in experiment [2], > 1000 nM.
For `Cc1ccnc(Nc2cccc(-c3ccc(C(=O)NC(C)(C)CC(=O)O)s3)n2)c1` [Compound B-101], the IC50 in experiment [1] was 100 to 1000 nM; in experiment [2], > 1000 nM.
As to `Cc1ccnc(Nc2cccc(-c3ccc(C(=O)NCC(O)CO)s3)n2)c1` (centres unmarked) [Compound B-102], the IC50 in experiment [1] was 100 to 1000 nM; in experiment [2] it was > 1000 nM.
With `Cc1ccnc(Nc2cccc(-c3ccc(CNCCC(=O)O)s3)n2)c1` [Compound B-103], the values for the half-inhibitory concentration (IC50) in experiment [1] and in experiment [2] were 100 to 1000 nM and > 1000 nM, respectively.
On to `Cc1ccnc(Nc2cccc(-c3ccc(C(=O)NC4CC4)s3)n2)c1` [Compound B-104], for which the IC50 in experiment [1] was 100 to 1000 nM; in experiment [2], > 1000 nM.

These data come from patent US7803801B2, “Aminopyridine compounds having Syk inhibitory activity” (Japan Tobacco, Inc., priority 2005, dated 2010).
